Values quoted from earlier work as cited in patent publication US6790445B1, “Preservatives for vaccines” (Merck & Co., Inc., priority 1997, dated 2004).

How the values were obtained:
[1] = in vivo
mice = settings: intraperitoneally
population = settings: in vivo
[2] = at 4° C.

## OCCOc1ccccc1 [2-Phenoxyethanol, 2-phenoxyethanol]
rats
  acute oral LD50: 1.26 to 2.33 mL/kg
rabbits
  acute dermal LD50: 2.0 mL/kg

## OCc1ccccc1 [Benzyl Alcohol, benzyl alcohol]
[1]
  probable lethal dose: 500 to 5000 mg/kg

## COC(=O)c1ccc(O)cc1 [Methyl Paraben, methyl paraben]
mice
  LD50: 1000 mg/kg

## C[CH2][Hg][S]c1ccccc1C(=O)[O-].[Na+] [Thimerosal]
population
  allergic reaction, share of the population: about sixteen

## N[C@@H](Cc1c[nH]cn1)C(=O)O [histidine, L-histidine]
[2]
  pKa: 7
